Experimental data published in patent US7214690B2, “Tricyclic quinolinone and tricyclic quinoline androgen receptor modulator compounds and methods” (Ligand Pharmaceuticals Incorporated, priority 2001, dated 2007).

Assays:
Format in all cases: cell-based
MR = target: T1, MR (Homo sapiens, UniProt P08235); assay: co-transfection assay, MR
T1 construct: expressed in transfected cells; host or cells: background cell substantially devoid of endogenous IRs (CV-1 described for the co-transfection assay)
T1 sequence (P08235 1-984): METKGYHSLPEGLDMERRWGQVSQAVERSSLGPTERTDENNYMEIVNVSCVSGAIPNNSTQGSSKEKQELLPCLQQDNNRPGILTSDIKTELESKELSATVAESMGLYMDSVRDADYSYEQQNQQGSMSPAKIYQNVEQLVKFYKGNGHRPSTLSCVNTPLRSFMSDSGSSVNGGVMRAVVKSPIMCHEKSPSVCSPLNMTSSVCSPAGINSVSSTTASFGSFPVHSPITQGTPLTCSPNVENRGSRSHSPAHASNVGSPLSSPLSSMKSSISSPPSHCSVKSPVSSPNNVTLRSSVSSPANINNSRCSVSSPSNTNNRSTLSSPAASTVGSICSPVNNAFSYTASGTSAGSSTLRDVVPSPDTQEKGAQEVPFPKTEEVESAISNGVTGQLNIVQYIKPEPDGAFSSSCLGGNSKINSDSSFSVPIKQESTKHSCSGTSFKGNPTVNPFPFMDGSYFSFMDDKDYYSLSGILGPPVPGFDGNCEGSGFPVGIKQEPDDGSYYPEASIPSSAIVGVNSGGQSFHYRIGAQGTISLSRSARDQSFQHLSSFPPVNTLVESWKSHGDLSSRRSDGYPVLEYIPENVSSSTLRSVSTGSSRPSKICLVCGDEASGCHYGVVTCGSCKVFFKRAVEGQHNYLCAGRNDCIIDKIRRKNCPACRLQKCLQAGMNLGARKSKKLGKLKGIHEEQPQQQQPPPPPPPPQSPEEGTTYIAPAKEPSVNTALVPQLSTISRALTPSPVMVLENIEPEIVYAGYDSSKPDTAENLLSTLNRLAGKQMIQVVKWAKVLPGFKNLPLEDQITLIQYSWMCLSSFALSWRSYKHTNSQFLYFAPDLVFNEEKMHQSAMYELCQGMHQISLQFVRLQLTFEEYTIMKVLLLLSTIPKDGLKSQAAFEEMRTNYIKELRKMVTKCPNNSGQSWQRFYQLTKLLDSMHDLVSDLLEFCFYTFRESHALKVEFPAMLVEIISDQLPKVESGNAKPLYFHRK
Method: (§1) CV-1 cells (African green monkey kidney fibroblasts) were cultured in the presence of Dulbecco's Modified Eagle Medium (DMEM) supplemented with 10% charcoal resin-stripped fetal bovine serum (CH-FBS) then transferred to 96-well microtiter plates one day prior to transfection.
(§2) Three to four replicates were used for each sample.
(§3) After 40 hours, the cells were washed with PBS, lysed with a Triton X-100-based buffer and assayed for LUC and β-Gal activities using a luminometer or spectrophotometer, respectively. For each replicate, the normalized response (NR) was calculated as: LUC response/β-Gal rate • where β-Gal rate=β-Gal/β-Gal incubation time.

GR = target: T2, GR (Homo sapiens, UniProt P04150); assay: co-transfection assay, GR
T2 construct: expressed in transfected cells; host or cells: background cell substantially devoid of endogenous IRs (CV-1 described for the co-transfection assay)
T2 sequence (P04150 1-777): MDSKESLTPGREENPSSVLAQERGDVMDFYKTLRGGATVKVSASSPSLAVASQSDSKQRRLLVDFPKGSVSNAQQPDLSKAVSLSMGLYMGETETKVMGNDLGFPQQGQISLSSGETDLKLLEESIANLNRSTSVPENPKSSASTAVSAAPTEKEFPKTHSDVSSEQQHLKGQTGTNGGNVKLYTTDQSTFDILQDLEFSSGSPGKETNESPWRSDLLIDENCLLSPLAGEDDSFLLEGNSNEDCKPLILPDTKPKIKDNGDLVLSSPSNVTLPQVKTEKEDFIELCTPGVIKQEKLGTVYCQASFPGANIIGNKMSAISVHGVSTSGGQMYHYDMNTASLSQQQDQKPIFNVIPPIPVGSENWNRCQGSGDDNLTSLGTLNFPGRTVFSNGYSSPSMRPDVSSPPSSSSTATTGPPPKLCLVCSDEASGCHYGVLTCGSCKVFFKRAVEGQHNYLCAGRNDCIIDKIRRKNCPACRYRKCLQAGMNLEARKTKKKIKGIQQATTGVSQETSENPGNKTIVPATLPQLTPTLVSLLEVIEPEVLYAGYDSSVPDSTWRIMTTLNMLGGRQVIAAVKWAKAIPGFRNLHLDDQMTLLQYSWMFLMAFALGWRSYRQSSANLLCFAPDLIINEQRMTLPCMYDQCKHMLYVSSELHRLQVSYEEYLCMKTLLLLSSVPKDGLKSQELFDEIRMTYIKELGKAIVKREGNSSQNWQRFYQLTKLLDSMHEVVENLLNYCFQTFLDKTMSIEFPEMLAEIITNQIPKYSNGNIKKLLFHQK
Method: as §1, §2, §3

PR = target: T3, PR (Homo sapiens, UniProt P06401); assay: co-transfection assay, PR
T3 construct: expressed in transfected cells; host or cells: background cell substantially devoid of endogenous IRs (CV-1 described for the co-transfection assay)
T3 sequence (P06401 1-933): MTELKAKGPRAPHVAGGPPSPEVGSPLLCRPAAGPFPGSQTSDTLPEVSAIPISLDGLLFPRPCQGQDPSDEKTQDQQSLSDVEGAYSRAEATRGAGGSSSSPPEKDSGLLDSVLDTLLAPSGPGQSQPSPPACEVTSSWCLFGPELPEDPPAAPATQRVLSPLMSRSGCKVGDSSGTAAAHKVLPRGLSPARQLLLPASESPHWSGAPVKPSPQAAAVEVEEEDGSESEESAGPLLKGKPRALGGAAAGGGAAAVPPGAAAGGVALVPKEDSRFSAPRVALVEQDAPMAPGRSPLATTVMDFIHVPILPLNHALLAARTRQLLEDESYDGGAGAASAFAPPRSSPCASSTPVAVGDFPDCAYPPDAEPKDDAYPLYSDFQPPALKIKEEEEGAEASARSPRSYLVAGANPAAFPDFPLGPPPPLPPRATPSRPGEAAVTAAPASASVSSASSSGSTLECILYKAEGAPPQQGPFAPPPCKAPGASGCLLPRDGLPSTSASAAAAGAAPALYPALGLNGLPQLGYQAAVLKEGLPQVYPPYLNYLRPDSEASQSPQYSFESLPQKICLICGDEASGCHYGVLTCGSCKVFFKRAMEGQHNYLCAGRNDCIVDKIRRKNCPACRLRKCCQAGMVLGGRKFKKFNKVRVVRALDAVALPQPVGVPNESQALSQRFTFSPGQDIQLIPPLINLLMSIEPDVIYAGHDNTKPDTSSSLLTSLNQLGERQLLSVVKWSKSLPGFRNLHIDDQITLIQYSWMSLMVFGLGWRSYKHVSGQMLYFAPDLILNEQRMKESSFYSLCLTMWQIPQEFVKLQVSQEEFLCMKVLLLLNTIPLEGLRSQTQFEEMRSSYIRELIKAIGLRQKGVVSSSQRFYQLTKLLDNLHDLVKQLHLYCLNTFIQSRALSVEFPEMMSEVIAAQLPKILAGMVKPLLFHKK
Method: as §1, §2, §3

ER = target: T4, ER (Homo sapiens, UniProt P03372); assay: co-transfection assay, ER
T4 construct: expressed in transfected cells; host or cells: background cell substantially devoid of endogenous IRs (CV-1 described for the co-transfection assay)
T4 sequence (P03372 1-595): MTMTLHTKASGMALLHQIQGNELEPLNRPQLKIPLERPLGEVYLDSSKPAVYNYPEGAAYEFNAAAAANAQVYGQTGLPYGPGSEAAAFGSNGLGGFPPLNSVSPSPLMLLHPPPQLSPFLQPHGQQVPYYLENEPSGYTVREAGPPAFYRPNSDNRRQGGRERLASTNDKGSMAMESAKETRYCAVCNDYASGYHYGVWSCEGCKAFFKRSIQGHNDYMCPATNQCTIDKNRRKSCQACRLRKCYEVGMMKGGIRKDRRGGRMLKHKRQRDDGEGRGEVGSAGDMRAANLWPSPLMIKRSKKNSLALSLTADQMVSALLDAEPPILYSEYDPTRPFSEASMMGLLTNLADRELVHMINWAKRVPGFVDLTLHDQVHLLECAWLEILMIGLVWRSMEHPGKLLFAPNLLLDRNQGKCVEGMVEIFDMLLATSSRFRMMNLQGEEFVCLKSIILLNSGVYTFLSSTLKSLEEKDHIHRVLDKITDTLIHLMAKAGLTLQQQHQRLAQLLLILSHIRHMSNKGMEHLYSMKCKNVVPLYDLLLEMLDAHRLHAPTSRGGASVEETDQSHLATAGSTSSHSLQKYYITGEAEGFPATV
Method: as §1, §2, §3

CCN1c2ccc3[nH]c(=O)cc(C(F)(F)F)c3c2OC[C@H]1C [Compound 103, (3R)-4-Ethyl-2,3,4,7-tetrahydro-3-methyl-10-(trifluoromethyl)-8H-[1,4]oxazino[2,3-f]quinolin-8-one]
> 10 µM: IC50 (MR) | IC50 (GR) | EC50 (PR) | EC50 (ER) | IC50 (ER)

C[C@@H]1COc2c(ccc3[nH]c(=O)cc(C(F)(F)F)c23)N1 [Compound 101, (3R)-2,3,4,7-Tetrahydro-3-methyl-10-(trifluoromethyl)-8H-[1,4]oxazino[2,3-f]quinolin-8-one]
> 10 µM: IC50 (MR) | IC50 (GR) | EC50 (PR) | EC50 (ER) | IC50 (ER)
